# Results published in US8637554B2, “Methods for treating thyroid cancer” (The Trustees of the University of Pennsylvania, priority 2008, dated 2014).
# Where “and” joins values, the source holds several entries; their conditions need not be identical. Identical values can stand only once. Entries after “also recorded” stand apart in the source; their conditions may differ.
# Experiments:
# Assay type in all cases: in vivo, human
# [1] = tested on: solid malignancies (tumor neovasculature); test: DCE-MRI (Ktr) in CA4P clinical trials
# Protocol: The results in the CA4P trials were variable. In DCE-MRI, the rate constant Ktrans (Ktr), representing the rate of passage of gadolinium from the plasma into the tumor interstitium, is determined. Ktr itself is determined as a function of both tumor blood flow and vascular permeability, thus serving as a marker of the status of the tumor neovasculature.
# p-AKT = test: Immunohistochemistry of patient tumor tissue before and on sorafenib: p-AKT
# From the text: (§1) Paraffin embedded tumor specimens from the patients' primary surgery and from lymph node biopsies after two weeks (Patient 1) and 17 months on treatment (Patient 2) were obtained. Thin (5 μm) sections from tumor tissue were cut and stained for the proliferation marker Ki-67 (Dakocytomation), and signaling markers p-ERK and p-AKT (Cell Signaling Technology) which are downstream indicators of BRAF and VEGFR2 activity. P-ERK is good reporter for BRAF activity, while p-AKT likely reflects signaling through several pathways including VEGFR. Slides were counterstained with hematoxylin and mounted in vectashield (Vector Labs). Two independent, blinded pathologists scored the slides based on intensity of stain and percent of cells staining positively.
# (§2) Proliferation and cellular signaling in the tumor cell (TC) and the endothelial cell (EC) compartments were evaluated by immunohistochemistry (IHC).
# p-ERK = test: Immunohistochemistry of patient tumor tissue before and on sorafenib: p-ERK
# From the text: as §1, §2
# [2] = tested on: metastatic thyroid carcinoma; test: Open-label phase II study of oral sorafenib in metastatic thyroid carcinoma: best response by RECIST, PFS/TTP
# From the text: Eligible patients were >18 years old with metastatic or unresectable thyroid carcinoma for which curative measures were no longer effective. Patients had evidence of measurable disease by RECIST criteria. All patients enrolled had evidence of disease progression in the year prior to initiation of treatment. Prior radioactive iodine treatments and one prior biologic treatment (kinase inhibitor, vaccine or antibody-based therapy) were allowed, but not within 3 weeks of treatment. […] Pre-menopausal women were required to have a negative pregnancy test and all patients of were required to use contraception.
# Patients were ineligible if they had previous exposure to a Ras pathway inhibitor (including trastuzumab, EGFR inhibitors, farnesyl transferase inhibitors or MEK inhibitors) or were unable to swallow and retain oral pills. All patients provided written informed consent prior to enrollment on the trial. The study protocol was approved by the Institutional Review Board of the University of Pennsylvania.
# (§3) This was an open-label, single institution phase II study of oral sorafenib in patients with metastatic thyroid carcinoma, including differentiated, poorly differentiated, medullary, and anaplastic subtypes. […] A cycle was defined as 4 weeks. Screening evaluations were completed within 2 weeks prior to the start of study drug, including medical history, demography, review of prior treatment, physical exam, 12-lead EKG, and laboratory evaluations including serum thyroid stimulating hormone (TSH) and thyroglobulin, and urinalysis. Radiological tests to identify target lesions were performed within 4 weeks of the first dose of study drug.
# (§4) After beginning treatment, patients were followed at four-week intervals. At each visit, a history and physical examination were performed, and a CBC, chemistry panel, TSH and thyroglobulin drawn. Patients were assessed for new symptoms, compliance with study medications (pill count), and concomitant medications. Dose adjustments were made as needed for toxicity. Response was assessed radiographically after eight and sixteen weeks of treatment and every twelve weeks thereafter.
# (§5) The study endpoints of best objective response rate and stable disease were measured based on the findings on computed tomography (CT) or magnetic resonance imaging (MRI) using RECIST. Additional endpoints included best response, duration of response and time to disease progression (TTP) on the basis of RECIST, clinical progression, or death. While TTP was the original endpoint, PFS and TTP were identical in this study, and PFS have been used in this report as it has become the more standard progression endpoint. All responses were confirmed by a study-designated radiologist. Adverse events were graded with the use of Common Terminology Criteria for Adverse Events, version 3.0 (CTCAE v3.0).
# This study was designed to exclude the null hypothesis response rate of 5% using a Simon two-stage design; the first stage included 30 patients, with an optional second stage including 25 additional patients if at least one response was observed. The observed response rate was tested against the null rate of 5% using an exact test for binomial proportions. Estimates of PFS (time from beginning on study drug to earlier of progression or death) with associated 95% confidence intervals were obtained using the method of Kaplan and Meier. Comparison of PFS among histological subtypes was conducted using the logrank test. All enrolled patients who received at least one day of treatment were included in this intent-to-treat analysis.
# 2) Evidence of measurable disease by RECIST criteria 3) Any number of prior radioactive iodine treatments and up to one prior biologic treatment.
# Primary Endpoint: Efficacy of sorafenib (objective response rate) in patients with metastatic thyroid carcinoma.
# Patients on study were monitored with CT scans every 2 months and PET scans prior to beginning therapy and 4 weeks after starting treatment. […]
# [3] = Phase II study of sorafenib: adverse events (CTCAE v3.0), dose changes, TSH
# From the text: as §3, §4, §5
# serum thyroglobulin = test: Serum thyroglobulin (sTG) monitoring in patients on sorafenib
# From the text: as §3, §4
# sTG levels are monitored monthly as part of the clinical trial. As sTG can rise due inadequate suppression of TSH, sTG levels are analyzed in the context of the serum TSH. In patients where […]. In addition, high levels of anti sTG antibodies can render the sTG levels un-interpretable. To date one patient has TSH that was not adequately controlled, and a second patient with anti sTG antibodies in excess of 1000 IU/ml. These patients are excluded from this analysis. sTG levels are correlated with clinical outcomes, and results of imaging and tissue analysis as described in the section on statistical analysis below.
# [4] = tested on: metastatic papillary thyroid carcinoma (mPTC); test: Response by CT and PET scan in two patients with metastatic papillary thyroid carcinoma on sorafenib
# Protocol: Patient 1: A person palpated a right-sided neck mass in August 2004. The patient underwent total thyroidectomy with lymph node dissection and pathology confirmed mPTC in one of eight lymph nodes. They were treated with ^131I and placed on thyroid hormone replacement. In August 2005, an enlarged lymph node was palpated in their neck.
# Treatment began on Apr. 18, 2006. Toxicity was assessed at every four weeks and response to treatment was assessed using serial CT and PET scans.
# Patient 2: A person presented with a sore throat in March 2002. Their physician noted only right sided cervical lymphadenopathy. […] Thyroidectomy and right neck lymph node dissection removed a 2.5 cm tall-cell PTC with 12 of 49 lymph nodes containing mPTC.
# PET scans were obtained on a dedicated whole-body PET scanner (C-PET, Phillips). At FDG injection, patients had fasted for 6 hours and blood glucose levels were less than 150 mg/dL. Image acquisition started 60 min following intravenous administration of FDG at a dose of 1.85 MBq/kg (0.05 mCi/kg) body weight. A transmission scan was obtained for attenuation correction.
# Ki-67 = test: Immunohistochemistry of patient tumor tissue before and on sorafenib: Ki-67
# From the text: as §1, §2
# [5] = Patient 1, after 2 weeks of treatment
# [6] = Patient 2, after 17 months of treatment
# [7] = Table 3 summary, 42 total / 31 evaluable patients
# [8] = first 30 patients as of May 25, 2008, follow-up Kaplan-Meier analysis
# [9] = first 30 patients, intention-to-treat
# [10] = first 30 patients, intention-to-treat, 400 mg orally twice a day
compound,measurement,setting,value
COc1ccc(/C=C\c2cc(OC)c(OC)c(OC)c2)cc1OP(=O)(O)O [CA4P],Ktr response,"[1]; certain patients, larger pre-treatment tumor Ktr values, incl. two with thyroid cancer",Strong Ktr responses
same,Ktr response,[1]; other patients,little or no effect
CNC(=O)c1cc(Oc2ccc(NC(=O)Nc3ccc(Cl)c(C(F)(F)F)c3)cc2)ccn1 [sorafenib],p-AKT staining in ECs,p-AKT; [5],decreased
same,p-AKT staining in TCs,p-AKT; [5],did not show any change
same,p-AKT staining in ECs and TCs,"p-AKT; Patient 2, at 17 months",slight increase
same,p-ERK staining in ECs,p-ERK; [5],no longer detected
same,p-ERK staining in TCs,p-ERK; [5],decreased
same,p-ERK expression in ECs,p-ERK; [6],markedly increased
same,p-ERK staining in TCs,p-ERK; [6],unchanged
same,Clinical benefit (PR + SD) rate,[2]; [7],72%
same,"Clinical benefit (PR + SD), number of patients",[2]; [7],13
same,Partial response (≧30%) rate,[2]; [7],24%
same,"Partial response (≧30%), number of patients",[2]; [7],10
same,Stable disease rate,[2]; [7],48%
same,"Stable disease, number of patients",[2]; [7],19
same,Overall median progression free survival,"[2]; all 30 patients, Kaplan-Meier, analysis four months after last patient started",79 weeks and 79.0 weeks
same,DTC patients median progression free survival,"[2]; differentiated thyroid cancers alone, Kaplan-Meier",84 weeks
same,Largest decrease in target lesions by RECIST (upper end of range of responses),[2]; first 30 patients,80%
same,"Median time to progression / PFS, all patients",[2]; [8],72 weeks
same,"Median time to progression / PFS, differentiated thyroid cancers (DTC)",[2]; [8],84 weeks
same,"Clinical benefit (PR + SD), number of patients",[2]; [9],23
same,"Partial response (PR, ≧30%), number of patients",[2]; [9],7
same,"Progressive disease as best response, number of patients",[2]; [9],2
same,"Progressive disease as best response, rate",[2]; [9],(3%)
same,"Stable disease (SD), number of patients",[2]; [9],16
same,Best response by RECIST: complete response rate,[2]; [10],(0%)
same,"Best response by RECIST: complete response, number of patients",[2]; [10],0
same,Decrease in size of visible shoulder nodule,"[2]; patient with poorly differentiated thyroid cancer, at 4 weeks, before progression",50%
same,"CT response of target lesions, lung metastases","[2]; person, follicular thyroid cancer, after 16 weeks, FIG. 3A",partial response
same,CT burden of lung disease,"[2]; person, papillary thyroid cancer, miliary lung metastases, after 33 weeks, FIG. 3B",marked improvement
same,"Disease symptoms (cough, dyspnea on exertion)","[2]; two patients of FIG. 3, within the first six months of treatment",complete resolution of their symptoms
same,Patients requiring drug holidays due to adverse events,[3]; 30 patients,63%
same,Patients who discontinued treatment due to adverse events,[3]; 30 patients,20%
same,Patients who experienced some weight loss,[3]; 30 patients,60%
same,Patients with doses reduced to control toxicities,[3]; 30 patients,47%
same,"Toxicity leading to withdrawal, single patients",[3]; CTCAE grade,grade 3 rash; also recorded: grade 2 fatigue; also recorded: grade 4 liver toxicity
same,Severity of treatment-related adverse events,[3]; CTCAE v3.0,predominantly of grade 1 or 2
same,"Patients WD due to toxicity, number","[3]; Table 3 summary, 42 total patients",2
same,"Outcome of LFT elevations after eight weeks, one patient",[3]; despite dose reductions and cessation,died of liver failure
same,Patients with rise in serum TSH to levels greater than 0.10 mIU/L,"[3]; while on sorafenib, 30 patients",33%
same,Patients with marked response in serum thyroglobulin levels,serum thyroglobulin; Seventeen of 19 patients with serial levels,95%
same,Thyroglobulin levels,"serum thyroglobulin; approximately 15 new patients enrolled since November 2008, iodine non-avid metastatic thyroid cancer",increased
same,Iodine uptake,"serum thyroglobulin; inferred from thyroglobulin levels, iodine non-avid metastatic thyroid cancer",effective in increasing the iodine uptake
same,Course of sTG early on treatment,"serum thyroglobulin; most patients, first two to four months",falls precipitously; also recorded: dropped precipitously
same,Initial decline of serum thyroglobulin (sTG),"serum thyroglobulin; patient 5, stably suppressed TSH, FIG. 4",25 % baseline levels
same,Mean decrease in serum thyroglobulin,serum thyroglobulin; within four months of starting treatment,70%
same,Progression-free survival,[4]; Patient 1,≥ 1.3 years
same,Decrease of target lesions (PR),"[4]; Patient 1, after 12 months",30%
same,Decrease in size of lung lesions by RECIST,"[4]; Patient 1, after 12 weeks",25%
same,Progression-free survival,[4]; Patient 2,≥ 3.7 years
same,Maintained partial response,"[4]; Patient 2, after 3.7 years on sorafenib",70%
same,Decrease of largest target lesion,"[4]; Patient 2, after 12 weeks",52%
same,Decrease of largest target lesion,"[4]; Patient 2, continued shrinkage after 20 weeks",72%
same,Ki-67 positive cells,"Ki-67; Patient 1, tissue after two weeks of treatment (pre-treatment 1% of TCs)",less than 1%
same,Ki-67 positive TCs versus pre-treatment,Ki-67; [6],no change in the number of positive cells
